Results on 22 compounds are retold here after patent publication US9938262B2, “Benzamides” (Merck Patent GmbH, priority 2011, dated 2018).

Usually EC50 stands for the concentration needed to bring the measured effect to its halfway point.

T1 sequence (P23945 18-695): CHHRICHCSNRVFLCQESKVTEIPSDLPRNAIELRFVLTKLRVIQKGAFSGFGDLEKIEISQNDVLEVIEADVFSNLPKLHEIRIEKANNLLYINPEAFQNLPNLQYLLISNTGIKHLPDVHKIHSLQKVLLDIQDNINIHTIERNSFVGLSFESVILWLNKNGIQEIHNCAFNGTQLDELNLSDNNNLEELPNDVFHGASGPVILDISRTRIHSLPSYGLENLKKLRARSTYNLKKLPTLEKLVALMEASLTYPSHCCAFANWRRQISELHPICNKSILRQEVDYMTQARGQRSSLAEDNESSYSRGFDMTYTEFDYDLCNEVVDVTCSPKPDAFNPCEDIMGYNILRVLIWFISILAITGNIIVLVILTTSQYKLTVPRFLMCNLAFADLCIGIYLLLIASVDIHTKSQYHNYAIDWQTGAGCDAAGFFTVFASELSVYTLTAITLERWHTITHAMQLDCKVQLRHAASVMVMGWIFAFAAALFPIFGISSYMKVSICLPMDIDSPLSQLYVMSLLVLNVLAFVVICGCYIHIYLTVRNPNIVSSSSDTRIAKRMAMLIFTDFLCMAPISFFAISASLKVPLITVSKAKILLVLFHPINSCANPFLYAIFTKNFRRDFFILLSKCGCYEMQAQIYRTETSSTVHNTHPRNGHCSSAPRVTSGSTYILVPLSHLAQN
T1 sequence (P01215 25-116 partner): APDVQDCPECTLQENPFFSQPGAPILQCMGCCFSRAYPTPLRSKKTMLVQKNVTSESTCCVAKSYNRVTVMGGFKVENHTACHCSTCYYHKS
T1 sequence (P01225 19-129 partner): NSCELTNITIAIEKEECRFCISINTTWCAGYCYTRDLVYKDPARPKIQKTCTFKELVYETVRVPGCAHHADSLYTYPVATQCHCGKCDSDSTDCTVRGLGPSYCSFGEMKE

The first test concerns the target T1, FSHR (Homo sapiens, UniProt P23945).
T1 construct: expressed in transfected cells; host or cells: CHO (Cho-FSHR-LUC-1-1-43)
Briefly: EC50 of cyclic AMP production in CHO FSHR cells + EC20 FSH (Assay A). Type of test: cell-based. Conditions: 1 h; 5 μM; effect relative to maximum response of the FSH standard; Table 1. An outline of the steps:
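cAMP HTRF ratio (665/620 nm) read after 1 h, 37 °C exposure of CHO-FSHR cells to compound in presence of EC20 FSH ([…]) and IBMX 200 μM. Responses given relative to FSH standard maximum; EC50 derived.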
For the compound `Cc1ccc(C(=O)Nc2cc(C(=O)NCCCN3CCCC3=O)ccc2N2CCN(Cc3ccccc3Cl)[C@@H](C)C2)o1` [Compound 255], the activation at 5 µM turned out to be 22%.

The same test, now with this note: CHO FSHR cells + EC20 FSH; Table 1; read-out: Assay A EC50 of cyclic AMP production.
In the case of `CCNC(=O)N1CCC[C@@H](NC(=O)c2ccc(N3CCN(c4ccccc4C)CC3)c(NC(=O)c3ccco3)c2)C1` [Compound 48, (R)-3-[3-[(furan-2-carbonyl)-amino]-4-(4-o-tolyl-piperazin-1-yl)-benzoylamino]-piperidine-1-carboxylic acid ethylamide], the EC50 lay in the range of 1000 to 10000 nM.

Take `Cc1nc(C(=O)Nc2cc(C(=O)NCCCN3CCCC3=O)ccc2N2CCN(c3ccccc3C)CC2)c(C(F)(F)F)o1` [Compound 76]: the EC50 lay within 1000 to 10000 nM.

Consider `CCCc1cc(C(=O)Nc2cc(C(=O)NCCCN3CCCC3=O)ccc2N2CCN(c3ccccc3C)CC2)co1` [Compound 220], for which the EC50 lay in the range of 1000 to 10000 nM.

On to `CNC[C@@H](NC(=O)c1ccc(N2CCN(c3ccccc3C)CC2)c(NC(=O)c2ccco2)c1)c1ccc(Cl)cc1` [Compound 55, Furan-2-carboxylic acid [5-[(S)-1-(4-chloro-phenyl)-2-methylamino-ethylcarbamoyl]-2-(4-o-tolyl-piperazin-1-yl)-phenyl]-amide], for which the EC50 fell in the range of 1000 to 10000 nM.

The test is the same for the next values; noted with them: CHO FSHR cells + EC20 FSH; Table 2; read-out: Assay A EC50 of cyclic AMP production.
Consider `Cc1cnc(CCCNC(=O)c2ccc(N3CCN(c4ccccc4C)CC3)c(NC(=O)c3coc(C4CC4)n3)c2)s1` [Compound 430], for which the EC50 lay within 100 to 1000 nM.

With `CCNC(=O)N(C)CCCNC(=O)c1ccc(N2CCN(c3ccccc3C)CC2)c(NC(=O)c2coc(C3CC3)n2)c1` [Compound 367], the EC50 fell in the range of 100 to 1000 nM.

As for `Cc1ccccc1N1CCN(c2ccc(C(=O)NCCCNC(=O)c3ccccc3)cc2NC(=O)c2coc(C3CC3)n2)CC1` [Compound 434], the EC50 lay within 100 to 1000 nM.

For `Cc1ccccc1N1CCN(c2ccc(C(=O)NC(C)(C)c3cccc(CN(C)C)c3)cc2NC(=O)c2coc(C3CC3)n2)CC1` [Compound 486], the EC50 was in the range of 1000 to 10000 nM.

On to `Cc1ccc(C(=O)Nc2cc(C(=O)NCCCN3CCCC3=O)ccc2N2CCN(c3ncccc3C)CC2)o1` [Compound 463], for which the EC50 fell in the range of 100 to 1000 nM.

Regarding `Cc1ccccc1N1CCN(c2ccc(C(=O)NCCc3cnc[nH]3)cc2NC(=O)C2CC2)CC1` [Compound 302], the EC50 fell in the range of 1000 to 10000 nM.

Turning to `O=C(NCCCN1CCCC1=O)c1ccc(N2CCN(c3ccccc3Br)CC2)c(NC(=O)c2coc(C3CC3)n2)c1` [Compound 313], the EC50 lay within 100 to 1000 nM.

As for `CC(=O)NCCCCNC(=O)c1ccc(N2CCN(c3ccccc3C)CC2)c(NC(=O)c2coc(C3CC3)n2)c1` [Compound 318], the EC50 was 100 to 1000 nM.

As to `Cc1ccccc1N1CCN(c2ccc(C(=O)NCCCc3nccs3)cc2NC(=O)c2coc(C3CC3)n2)CC1` [Compound 393], the EC50 was 100 to 1000 nM.

With `CC(=O)N(C)CCCNC(=O)c1ccc(N2CCN(c3ccccc3C)CC2)c(NC(=O)c2coc(C3CC3)n2)c1` [Compound 360], the EC50 is less than 100 nM.

For `O=C(NCCCN1CCCC1=O)c1ccc(N2CCN(c3cccc4[nH]ccc34)CC2)c(NC(=O)c2coc(C3CC3)n2)c1` [Compound 553], the EC50 lay in the range of 100 to 1000 nM.

In the case of `Cc1ccccc1N1CCN(c2ccc(C(=O)NC[C@@H](N)c3ccccc3)cc2NC(=O)c2coc(C3CC3)n2)CC1` [Compound 568], the EC50 was 100 to 1000 nM.

With `Cc1ccccc1N1CCN(c2ccc(C(=O)NCc3cccc(C(F)(F)F)c3)cc2NC(=O)c2ccco2)CC1` [Compound 527], the EC50 lay within 100 to 1000 nM.

`Cn1ccnc1N1CCN(c2ccc(C(=O)NCCCN3CCCC3=O)cc2NC(=O)c2coc(C3CC3)n2)CC1` [Compound 483]: the EC50 was in the range of 1000 to 10000 nM.

With `Cc1ccc(C(=O)Nc2cc(C(=O)NCCCN3CC(C)OC3=O)ccc2N2CCN(c3ccccc3C)CC2)o1` (stereo not shown) [Compound 370], the EC50 was in the range of 1000 to 10000 nM.

Consider `COc1ccnc(N2CCN(c3ccc(C(=O)NCCCN4CCCC4=O)cc3NC(=O)c3coc(C4CC4)n3)CC2)c1` [Compound 530], for which the EC50 was in the range of 1000 to 10000 nM.

`COC(=O)NCCCNC(=O)c1ccc(N2CCN(c3ccccc3C)CC2)c(NC(=O)c2ccc(C)o2)c1` [Compound 271]: the 50% effective concentration (EC50) lay in the range of 100 to 1000 nM.
